Data on 76 compounds can be found in ChEMBL document CHEMBL4680101, “Discovery and Optimization of Allosteric Inhibitors of Mutant Isocitrate Dehydrogenase 1 (R132H IDH1) Displaying Activity in Human Acute Myeloid Leukemia Cells” (J Med Chem, 2016).

The assay deals with Isocitrate dehydrogenase [NADP] cytoplasmic (Homo sapiens, UniProt O75874, R132H). Nature of the assay: Inhibition of IDH1 R132H mutant (unknown origin) using alpha-ketoglutarate and NADPH incubated for 60 mins by fluorescence based assay.
Sequence of Isocitrate dehydrogenase [NADP] cytoplasmic (O75874 2-414 R132H limits assumed): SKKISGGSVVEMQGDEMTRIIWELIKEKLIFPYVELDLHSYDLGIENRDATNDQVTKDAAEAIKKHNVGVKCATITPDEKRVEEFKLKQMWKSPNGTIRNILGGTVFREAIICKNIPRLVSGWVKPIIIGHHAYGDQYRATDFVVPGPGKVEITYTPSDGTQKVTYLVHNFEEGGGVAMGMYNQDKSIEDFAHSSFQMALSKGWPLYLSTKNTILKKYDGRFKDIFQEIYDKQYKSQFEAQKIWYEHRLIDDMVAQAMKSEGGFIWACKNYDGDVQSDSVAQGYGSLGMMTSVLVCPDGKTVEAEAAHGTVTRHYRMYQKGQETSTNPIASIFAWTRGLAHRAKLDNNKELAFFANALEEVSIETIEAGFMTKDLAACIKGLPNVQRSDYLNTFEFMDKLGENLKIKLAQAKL

`CCC(C)COc1nc(N2CCC[C@@H](CC(=O)O)C2)ccc1C(=O)NC1CCCCC1` (stereo partly specified) came in with an IC50 of 16 µM.
As for `O=C(O)C[C@@H]1CCCN(c2ccc(C(=O)NC3CCCCC3)c(SCc3ccccc3F)n2)C1`, 21 µM corresponded to half-maximal inhibition (IC50).
In turn, `O=C(O)C[C@@H]1CCCN(c2ccc(C(=O)NC3CCCCC3)c(OC3CCCC3)n2)C1` came in with an IC50 of 12 µM.
As to `COc1ccc(COc2nc(N3CCC[C@@H](CC(=O)O)C3)ccc2C(=O)NC2CCCCC2)cc1`, the concentration for half-maximal inhibition (IC50) is above 50 µM.
In the case of `O=C(O)C[C@@H]1CCCN(c2ccc(C(=O)NC3CCCCC3)c(OCc3cccc(Cl)c3)n2)C1`, the half-maximal inhibitory concentration (IC50) is 9.9 µM. That is a single-digit micromolar value.
In turn, `Cc1ccc(COc2nc(N3CCC[C@@H](CC(=O)O)C3)ccc2C(=O)NC2CCCCC2)cc1` returned an IC50 above 50 µM.
Regarding `O=C(O)C[C@@H]1CCCN(c2ccc(C(=O)NC3CCCCC3)c(OC3CCC3)n2)C1`, the IC50 is above 50 µM.
`Cc1ccccc1COc1nc(N2CCC[C@@H](CC(=O)O)C2)ccc1C(=O)NC1CCCCC1` returned an IC50 of 4.5 µM.
Compound `CC(C)CCNc1nc(N2CCC[C@@H](CC(=O)O)C2)ccc1C(=O)NC1CCCCC1` registered an IC50 above 50 µM.
In the case of `CC(C)=CCOc1nc(N2CCC[C@@H](CC(=O)O)C2)ccc1C(=O)NC1CCCCC1`, the IC50 was found to be 14 µM.
For `CC(Oc1nc(N2CCC[C@@H](CC(=O)O)C2)ccc1C(=O)NC1CCCCC1)C1CC1` (stereo partly specified), the IC50 turned out to be 20 µM.
`CC(C)CCOc1nc(N2C[C@@H]3[C@H](C2)[C@H]3C(=O)O)ccc1C(=O)Nc1cccc(CO)c1`: 3.2 µM corresponded to half-maximal inhibition (IC50).
Consider `Cc1ccccc1CSc1nc(N2CCC[C@@H](CC(=O)O)C2)ccc1C(=O)NC1CCCCC1`, for which the IC50 is above 50 µM.
Consider `O=C(O)C[C@@H]1CCCN(c2ccc(C(=O)NC3CCCCC3)c(OCC3CCCCC3)n2)C1`, for which half-maximal inhibition (IC50) required 9.7 µM.
For `CC(C)CCOc1nc(N2C[C@@H]3[C@H](C2)[C@H]3C(=O)O)ccc1C(=O)NCCc1ccccc1`, the half-inhibitory concentration (IC50) turned out to be 3.9 µM.
Compound `CN(C)CCOc1nc(N2CCC[C@@H](CC(=O)O)C2)ccc1C(=O)NC1CCCCC1` showed a half-maximal inhibitory concentration (IC50) above 50 µM.
For `Cc1ccccc1[C@@H](C)Oc1nc(N2CCC[C@@H](CC(=O)O)C2)ccc1C(=O)NC1CCCCC1`, the IC50 is 5.8 µM.
For `COC12CC3CC(C1)C(NC(=O)c1ccc(N4C[C@@H]5[C@H](C4)[C@H]5C(=O)O)nc1OCCC(C)C)C(C3)C2` (stereo partly specified) the value was 0.27 µM.
`O=C(NC1C2CC3CC1CC(O)(C3)C2)c1ccc(N2C[C@@H]3[C@H](C2)[C@H]3C(=O)O)nc1OCc1ccccc1Cl` (stereo partly specified) showed a half-inhibitory concentration (IC50) of 3.2 µM.
The compound `CC(C)CCOc1nc(N2C[C@@H]3[C@H](C2)[C@H]3C(=O)O)ccc1C(=O)Nc1cccc(O)c1` came in with an IC50 of 2.9 µM. This IC50 and that of the compound before are within 1.5-fold of each other.
Turning to `CC(C)CCOc1nc(N2C[C@@H]3[C@H](C2)[C@H]3C(=O)O)ccc1C(=O)N(C)Cc1ccccc1`, half-maximal inhibition (IC50) required 7.4 µM.
The result for `O=C(NC1C2CC3CC1CC(O)(C3)C2)c1ccc(N2C[C@@H]3[C@H](C2)[C@H]3C(=O)O)nc1OCc1ccccc1` (stereo partly specified) reads 27 µM; that for `CC(C)CCOc1nc(N2C[C@@H]3[C@H](C2)[C@H]3C(=O)O)ccc1C(=O)Nc1cccc(C(N)=O)c1`, 6 µM.
As to `CC(C)CCOc1nc(N2C[C@@H]3[C@H](C2)[C@H]3C(=O)O)ccc1C(=O)NCc1cccc(O)c1`, the IC50 was 6.3 µM. This IC50 and that of the compound before are within 1.5-fold of each other.
With `CC(C)CCOc1nc(N2C[C@@H]3[C@H](C2)[C@H]3C(=O)O)ccc1C(=O)NC(C)C1C2CC3CC1CC(O)(C3)C2` (stereo partly specified), 0.23 µM corresponded to half-maximal inhibition (IC50).
In the case of `CC(C)CCOc1nc(N2CCC(C(=O)O)CC2)ccc1C(=O)NC1C2CC3CC1CC(O)(C3)C2` (stereo unspecified), the IC50 turned out to be 3.4 µM.
Turning to `O=C(O)C[C@@H]1CCCN(c2ccc(C(=O)NC3CCCCC3)c(OCc3ccc(Cl)cc3)n2)C1`, the half-inhibitory concentration (IC50) is 7.7 µM.
The result for `CCCCOc1nc(N2CCC[C@@H](CC(=O)O)C2)ccc1C(=O)NC1CCCCC1` reads 12 µM; that for `CC(C)CCOc1nc(N2C[C@@H]3[C@H](C2)[C@H]3C(=O)O)ccc1C(=O)N[C@@H](C)c1ccccc1`, 4.4 µM.
Consider `CCC(C)(C)Oc1nc(N2CCC[C@@H](CC(=O)O)C2)ccc1C(=O)NC1CCCCC1`, for which the IC50 turned out to be 14 µM.
In the case of `O=C(O)C[C@@H]1CCCN(c2ccc(C(=O)NC3CCCCC3)c(OCCc3ccccc3)n2)C1`, the half-maximal inhibitory concentration (IC50) is 43 µM.
The result for `CC(C)(C)CCOc1nc(N2CCC[C@@H](CC(=O)O)C2)ccc1C(=O)NC1CCCCC1` reads 7.6 µM; that for `CC(C)CCOc1nc(N2C[C@@H]3[C@H](C2)[C@H]3C(=O)O)ccc1C(=O)N(C)C1CCCCC1`, 17 µM.
For the compound `Cc1ccccc1COc1nc(N2CCC[C@@H](CC(=O)O)C2)ccc1C(=O)NC1C2CC3CC1CC(O)(C3)C2` (stereo partly specified), 0.69 µM corresponded to half-maximal inhibition (IC50).
Consider `O=C(O)C[C@@H]1CCCN(c2ccc(C(=O)NC3CCCCC3)c(OCc3ccccc3Cl)n2)C1`, for which the IC50 was 7 µM.
`CC(C)CCOc1nc(N2C[C@@H]3[C@H](C2)[C@H]3C(=O)O)ccc1C(=O)NCc1cccnc1` displayed an IC50 of 5.6 µM. This IC50 and that of the compound before are within 1.5-fold of each other.
`O=C(O)C[C@@H]1CCCN(c2ccc(C(=O)NC3CCCCC3)c(OCc3cccc(F)c3)n2)C1` returned a half-inhibitory concentration (IC50) of 10 µM.
In turn, `CCCC(C)Oc1nc(N2CCC[C@@H](CC(=O)O)C2)ccc1C(=O)NC1CCCCC1` (stereo partly specified) had an IC50 of 12 µM.
Compound `O=C(O)C[C@@H]1CCCN(c2ccc(C(=O)NC3CCCCC3)c(OC3CCCCC3)n2)C1` came in with an IC50 of 12 µM.
`C[C@@H](Oc1nc(N2CCC[C@@H](CC(=O)O)C2)ccc1C(=O)NC1CCCCC1)c1ccccc1`: the IC50 came out at 5.9 µM.
`CC(C)CCOc1nc(Nc2cccc(C(=O)O)c2)ccc1C(=O)NC1C2CC3CC1CC(O)(C3)C2` (stereo unspecified): 11 µM corresponded to half-maximal inhibition (IC50).
In turn, `CC(C)CCOc1nc(N2C[C@@H]3[C@H](C2)[C@H]3C(=O)O)ccc1NC(=O)NC1CCCCC1` showed a half-inhibitory concentration (IC50) above 50 µM.
In the case of `O=C(O)C[C@@H]1CCCN(c2ccc(C(=O)NC3CCCCC3)c(OCC3CCC3)n2)C1`, the IC50 turned out to be 20 µM.
In turn, `CC(C)CCOc1nc(N2C[C@@H]3[C@H](C2)[C@H]3C(=O)O)ccc1C(=O)Nc1ccc(CO)cc1` displayed an IC50 of 5.6 µM.
The compound `O=C(O)C[C@@H]1CCCN(c2ccc(C(=O)NC3CCCCC3)c(NCC3CCCCC3)n2)C1` returned a 50% inhibitory concentration (IC50) above 50 µM.
`CC(C)CCOc1nc(N2C[C@@H]3[C@H](C2)[C@H]3C(=O)O)ccc1C(=O)NCc1ccncc1` registered a concentration for half-maximal inhibition (IC50) of 6.2 µM.
The result for `O=C(O)C[C@@H]1CCCN(c2ccc(C(=O)NC3CCCCC3)c(NCc3ccccc3)n2)C1` reads above 50 µM; that for `CC(C)CCOc1nc(N2C[C@@H]3[C@H](C2)[C@H]3C(=O)O)ccc1C(=O)NCc1cccc(Cl)c1`, 6.5 µM; that for `CC(C)CCOc1nc(N2C[C@@H]3[C@H](C2)[C@H]3C(=O)O)ccc1C(=O)NC1C2CC3CC(C2)CC1C3` (stereo partly specified), above 50 µM.
`CC(C)CCOc1nc(N2C[C@@H]3[C@H](C2)[C@H]3C(=O)O)ccc1C(=O)Nc1cccc(NS(C)(=O)=O)c1` displayed an IC50 of 5.4 µM.
For `O=C(O)C[C@@H]1CCCN(c2ccc(C(=O)NC3C4CC5CC3CC(O)(C5)C4)c(OCc3ccccc3)n2)C1` (stereo partly specified), the IC50 is 2.3 µM.
For `CC(C)CCOc1nc(Nc2nc(CC(=O)O)cs2)ccc1C(=O)NC1C2CC3CC1CC(O)(C3)C2` (stereo unspecified) the value was above 50 µM.
Consider `CC(C)CCOc1nc(N2C[C@@H]3[C@H](C2)[C@H]3C(=O)O)ccc1C(=O)N[C@H](CO)c1ccccc1`, for which the half-inhibitory concentration (IC50) worked out at 12 µM.
Consider `O=C(O)C[C@@H]1CCCN(c2ccc(C(=O)NC3CCCCC3)c(OCc3ccc(F)cc3)n2)C1`, for which the IC50 was found to be 8.8 µM. This IC50 and that of the compound before are within 1.5-fold of each other.
The result for `CCOC(=O)[C@H]1[C@@H]2CN(c3ccc(C(=O)NC4C5CC6CC4CC(O)(C6)C5)c(OCCC(C)C)n3)C[C@@H]21` (stereo partly specified) reads 13.5 µM; that for `CC(C)CCOc1nc(N2C[C@@H]3[C@H](C2)[C@H]3C(=O)O)ccc1C(=O)NC1CCC(O)CC1` (stereo partly specified), 8.2 µM.
Consider `CC(C)CCOc1nc(N2C[C@@H]3[C@H](C2)[C@H]3C(=O)O)ccc1C(=O)NC1CC2CCC1C2` (stereo partly specified), for which the midpoint of inhibition, the IC50, lay at 14 µM.
`O=C(O)C[C@@H]1CCCN(c2ccc(C(=O)NC3CCCCC3)c(OCCCC(F)(F)F)n2)C1` gave a 50% inhibitory concentration (IC50) of 15 µM. The IC50 values of the last two compounds are within 1.5-fold of each other.
As to `CC(C)CCOc1nc(N2C[C@@H]3[C@H](C2)[C@H]3C(=O)O)ccc1NC(=O)C1CCCCC1`, the half-inhibitory concentration (IC50) is above 50 µM.
For `CC(C)CCOc1nc(N2C[C@@H]3[C@H](C2)[C@H]3C(=O)O)ccc1C(=O)NCc1ccccc1` the value was 9.4 µM; for `COCCOc1nc(N2CCC[C@@H](CC(=O)O)C2)ccc1C(=O)NC1CCCCC1`, above 50 µM.
Take `CC1CC1COc1nc(N2CCC[C@@H](CC(=O)O)C2)ccc1C(=O)NC1CCCCC1` (stereo partly specified): the half-maximal inhibitory concentration (IC50) is 14 µM.
With `CC(C)CCOc1nc(N2C[C@@H]3[C@H](C2)[C@H]3C(=O)O)ccc1C(=O)NC[C@H](O)c1ccccc1`, the IC50 was 3 µM.
For `CC(C)COc1nc(N2CCC[C@@H](CC(=O)O)C2)ccc1C(=O)NC1CCCCC1` the value was 26 µM; for `CC(C)CCOc1nc(Nc2coc(C(=O)O)n2)ccc1C(=O)NC1C2CC3CC1CC(O)(C3)C2` (stereo unspecified), 21 µM; for `CC(C)CCOc1nc(N2C[C@@H]3[C@H](C2)[C@H]3C(=O)O)ccc1C(=O)NCc1ccc(Cl)cc1`, 17 µM.
As for `CC(C)CCOc1nc(N2CC[C@H](CC(=O)O)C2)ccc1C(=O)NC1C2CC3CC1CC(O)(C3)C2` (stereo partly specified), the half-inhibitory concentration (IC50) is 1.2 µM.
`CCOc1nc(N2CCC[C@@H](CC(=O)O)C2)ccc1C(=O)NC1CCCCC1`: the concentration for half-maximal inhibition (IC50) is above 50 µM.
`CC(C)CCOc1nc(N2C[C@@H]3[C@H](C2)[C@H]3C(=O)O)ccc1NS(=O)(=O)C1CCCCC1`: the midpoint of inhibition, the IC50, lay at 8.6 µM. That is a single-digit micromolar value.
Consider `O=C(O)C[C@@H]1CCCN(c2ccc(C(=O)NC3CCCCC3)c(OCC3CC3)n2)C1`, for which the 50% inhibitory concentration (IC50) was determined as 30 µM.
The result for `O=C(O)C[C@@H]1CCCN(c2ccc(C(=O)NC3CCCCC3)c(NC3CCCC3)n2)C1` reads above 50 µM; that for `COc1ccccc1COc1nc(N2CCC[C@@H](CC(=O)O)C2)ccc1C(=O)NC1CCCCC1`, 13 µM; that for `O=C(O)C[C@@H]1CCCN(c2ccc(C(=O)NC3CCCCC3)c(OCc3ccccc3)n2)C1`, 8.6 µM.
Compound `O=C(O)C[C@@H]1CCCN(c2ccc(C(=O)NC3CCCCC3)c(OC3CCOCC3)n2)C1` returned a 50% inhibitory concentration (IC50) above 50 µM.
Compound `Cc1cc(Cl)ccc1COc1nc(N2CCC[C@@H](CC(=O)O)C2)ccc1C(=O)NC1CCCCC1` came in with an IC50 of 38 µM.
On to `O=C(O)C[C@@H]1CCCN(c2ccc(C(=O)NC3CCCCC3)c(SCc3ccccc3)n2)C1`, for which the midpoint of inhibition, the IC50, lay at 39 µM.
